In PubChem BioAssay (NCI) one finds GI50 and TGI data, which are given here for eleven compounds.

What all share (assay): NCI tumour cell line growth inhibition, 48 h
The subject of assay [1] is CCRF-CEM leukemia.
In assay [2] the test system is DU-145 prostate.
Assay [3] relates to HCT-116 colon.
Assay [4] deals with HCT-15 colon.
The subject of assay [5] is HT29 colon.
For assay [6], the system named is K-562 leukemia.
In assay [7] the test system is KM12 colon.
For assay [8], the system named is SNB-75 CNS.
In assay [9] the test system is UO-31 renal.
The subject of assay [10] is SNB-19 CNS.

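Five concentrations, 48 hours, 96-well plates. GI50 is the concentration that inhibits growth by half. TGI is the concentration that stops growth completely.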 A value given as a limit tells only on which side of the number the result lay.

As to `COC(=O)CC[C@H](Cc1ccccc1)NC(=O)c1csc([C@@H](C[C@H](C(C)C)N(C)C(=O)[C@@H](NC(=O)[C@H]2CCCCN2C)C(C)C)OC(C)=O)n1`, the GI50 in assay [1] was 0.00289 µM; in assay [2], below 0.0025 µM; in assay [3], below 0.0025 µM; in assay [4], 0.00685 µM; in assay [5], below 0.0025 µM; in [6], below 0.0025 µM. For the same compound, the values for the GI50 in [7], in [8] and in assay [9] were below 0.0025 µM, below 0.0025 µM and 0.0165 µM, respectively. Besides, the TGI in assay [1], in assay [2], in assay [3], in assay [4], in assay [5] and in assay [6] was above 25 µM in each case. The TGI in [7], in assay [8] and in assay [9] was above 25 µM throughout.

Consider `O=C1c2ccccc2-c2c1c1ccccc1c(=O)n2CCCn1ccnc1`, for which the GI50 is 1.51 µM in [1]; 1.41 µM in assay [2]; 1.4 µM in [3]; 1.9 µM in assay [4]; 1.22 µM in assay [5]; 1.45 µM in assay [6]. For the same compound, the GI50 in [7] is 1.94 µM; in assay [10] it was 2.11 µM; in [8] it was 5.82 µM; in assay [9] it was 0.359 µM. Moreover, the TGI in [1] was above 100 µM; in assay [2] it was 6.94 µM; in assay [3], 13.8 µM; in [4], above 100 µM; in [5], 6.27 µM; in assay [6], 4.64 µM. In addition, the TGI was 5.95 µM in assay [7], above 100 µM in assay [10], 93.4 µM in assay [8] and above 100 µM in assay [9].

As for `CCN1CCN(CC(=O)N2c3cccc4cccc(c34)N(C(=O)CN3CCN(CC)CC3)C2c2cn(-c3ccccc3)nc2-c2cccc([N+](=O)[O-])c2)CC1`, the GI50 in [1] is 1.15 µM; in assay [2], 1.96 µM; in assay [3], 1.27 µM; in assay [4] it was 1.46 µM; in assay [5], 1.74 µM; in assay [7] it was 1.72 µM. In addition, the GI50 in assay [10] is 1.66 µM; in assay [8] it was 1.13 µM; in assay [9], 1.34 µM. For the same compound, the TGI in assay [1] was determined as 3.51 µM; in assay [2], 4.03 µM; in [3] it was 2.83 µM; in assay [4], 2.98 µM; in [5], 3.84 µM; in assay [7], 3.28 µM. Moreover, the TGI was 3.42 µM in [10], 2.48 µM in [8] and 2.73 µM in assay [9].

Consider `CO/N=C(\C)CCC#Cc1ccccc1C(=O)OC`, for which the TGI in assay [1], in [2], in [3], in assay [4], in assay [5] and in [6] was above 10 µM throughout. For the same compound, the TGI in assay [7], in assay [10] and in assay [9] was above 10 µM each time.

For `CC12CCC(Br)C(C)(C)C1CC=C1C(=O)OCC1O2` (centres undefined), the TGI in assay [2] was 25.7 µM; in assay [3], above 44.5 µM; in assay [4], 39 µM; in assay [5] it was 87.5 µM; in assay [6] it was above 100 µM; in [7], 32.3 µM. The TGI is above 50.4 µM in assay [10], 34.7 µM in [8] and above 42.6 µM in assay [9].

`CSc1nc(SC)c2c(CO)c(Br)n(Cc3ccccc3)c2n1`: the TGI was above 100 µM in assay [1]; 77.8 µM in assay [2]; above 100 µM in [3]; above 100 µM in assay [4]; above 100 µM in assay [5]; above 100 µM in assay [7]. The figures for the TGI in assay [10], in [8] and in [9] were 84.3 µM, 29.9 µM and 44.4 µM, respectively.

As for `Oc1ccc2oc3ncc(Br)c(-c4ccccc4)c3c2c1`, the GI50 in [1], in assay [2], in assay [3], in [4], in [5] and in assay [6] was above 100 µM each time. In addition, the GI50 in [7] and in assay [9] was above 100 µM each time. The TGI in [1], in assay [2], in assay [3], in [4], in assay [5] and in assay [6] was above 100 µM throughout. In addition, the TGI in [7] and in assay [9] was above 100 µM in each case.

For the compound `C#CCOc1cccc(Nc2ncnc3cc(NC(=O)CCl)ccc23)c1`, the GI50 is 1.55 µM in [1]; 10 µM in assay [2]; 1.96 µM in [3]; 1.51 µM in [4]; 2.08 µM in [5]; 0.628 µM in assay [6]. Moreover, the GI50 in [7] is 4.34 µM; in assay [10], 4.98 µM; in assay [9] it was 3.31 µM. For the same compound, the TGI in assay [1] amounted to 8.85 µM; in assay [2], 21.6 µM; in assay [3], 10.2 µM; in assay [4], 6.8 µM; in assay [5] it was 6.11 µM; in [6], 4.69 µM. Moreover, the TGI in assay [7] came to 16.8 µM; in assay [10], 18.4 µM; in [9] it was 15.7 µM.

Regarding `O=c1c(O)c(-c2cc(O)c(O)c(O)c2)oc2cc(O)cc(O)c12`, the TGI in assay [1] was above 100 µM; in assay [2] it was above 100 µM; in assay [3], 34.1 µM; in [4] it was 71.8 µM; in assay [5] it was 38.9 µM; in [6], above 100 µM. Also, the TGI is 33.1 µM in [7], above 100 µM in assay [8] and above 100 µM in [9].

As to `CN(C)CCNC(=O)c1ccc(NC(=O)c2nc([N+](=O)[O-])cn2C)cc1`, the TGI in assay [1], in [2], in assay [3], in [4], in assay [5] and in [6] was above 100 µM throughout. Besides, the TGI in assay [7], in assay [8] and in [9] was above 100 µM throughout.

With `COC(=O)/C=C/c1cc2c(cc1-c1c(C(=O)O)cc(OC)c(OC)c1OC)OCO2`, the TGI in [1], in [2], in [3], in assay [4], in assay [5] and in assay [6] was above 10 µM in each case. For the same compound, the TGI in assay [7], in assay [10] and in [8] was above 10 µM throughout.
